Laboratory results taken from PMC9598407, “Identification of Staphylococcus aureus Penicillin Binding Protein 4 (PBP4) Inhibitors” (Antibiotics, 2022).
“Also recorded” adds a separate entry of the source.

Columns and labels:
S. aureus strain USA300 = assay: microbe, parasite or virus in culture; assay type: cell-based; settings: Staphylococcus aureus, USA300, read-out: Ceftobiprole resistance (MIC) in the presence of compound
Experimental: Fractional inhibitory testing was performed in checkerboard format to determine whether putative PBP4 inhibitors potentiated the antimicrobial effects of β-lactams toward S. aureus strains USA300 and CRB, as previously described. To do so, in triplicate 10^5 CFU of each strain (10 µL) was added to individual wells of a microtiter plate containing 90 µL MH media. […] Plates were incubated at 37 °C for 16–20 h and the lowest concentration of each test agent that inhibited bacterial growth alone or in combination was determined by the naked eye. The fractional inhibitory concentration (FIC) index was calculated using the formula: FIC of A (MIC of drug A in combination/MIC of drug A alone) + FIC B ([…]/MIC of drug B alone). A synergistic interaction was defined as a FICI value of less than 0.5, an additive interaction was defined as a FICI value between 0.5 and 1.0, an indifferent interaction was defined as a FICI value between 1.0 and 4.0, and an antagonistic interaction was defined as a FICI value of more than 4.0 [46].

[1] = tested on: pbp4 expression in S. aureus CRB; assay: qRT-PCR of pbp4 transcript titers, CRB; assay type: cell-based, Staphylococcus aureus; settings: 25 µM compound, 3 h
Description: (§1) Given that each of the six compounds appeared to affect PBP4-mediated antibiotic resistance, we considered that their effects may be modulated by either inhibiting the protein’s function or by reducing pbp4 expression, the latter of which may be readily overcome by regulatory mutations that could in-turn easily result in resistance. Thus, we sought to prioritize compounds that may affect the protein’s function and de-prioritize compounds that affect the protein’s expression. Quantitative real-time reverse transcriptase PCR (qRT-PCR) was used to measure the pbp4 transcript titers within USA300 and CRB cells following compound treatment (Figure 2). […] We chose to focus the remainder of our studies on 9314848 (Figure 3A) because the molecule appeared the more druggable and chemically tractable for downstream structure activity relationship studies.
(§2) PBP4 transcript titers of bacterial cells exposed to putative PBP4 inhibitors were measured using real time quantitative PCR (RT-qPCR), as previously described. […] Bacterial RNA was amplified and measured using PerfeCTa SYBR Green FastMix and qScript cDNA SuperMix kits following the manufacturer’s recommendations (QuantaBio, Beverly, MA, USA). […]

[2] = tested on: pbp4 expression in S. aureus USA300; assay: qRT-PCR of pbp4 transcript titers, USA300; assay type: cell-based, Staphylococcus aureus; settings: 25 µM compound, 3 h
Description: as §1, §2

CC1CCN(C(=O)c2cccc(NC(=O)Nc3ccc(Cl)cc3)c2)CC1 [Compound 9314848]
MIC (S. aureus strain USA300): 0.25 µg/mL
pbp4 expression (mRNA titer, qRT-PCR) [1]: did not seem to affect pbp4 expression; also recorded: did not significantly impact pbp4 transcription
pbp4 expression (mRNA titer, qRT-PCR) [2]: did not seem to affect pbp4 expression; also recorded: did not significantly impact pbp4 transcription
